According to ChEMBL document CHEMBL1140075 (J Med Chem, 2008):
pIC50, pKi: −log10 of the molar value. Calls of active or inactive are those of the source. The calls are words filed in the database; no cut-off is given here. Positions of bridges follow the written chain, without caps; N, C: chain ends. Residues, ends and D or L forms follow the SMILES beside them.

Columns and labels:
[1] = Stability assessed as loss of native globular conformation level in presence of reduced glutathione at 500 uM at 2 hrs; type: physicochemical; settings: solution with 500 uM reduced glutathione; read-out: Activity
[2] = target: Acetylcholine-binding protein (Lymnaea stagnalis, UniProt P58154)
[3] = target: Neuronal acetylcholine receptor subunit alpha-7 (Rattus norvegicus, UniProt Q05941)
[4] = Stability assessed as half life of native globular conformation state in presence of reduced glutathione at 500 uM; type: physicochemical; settings: solution with 500 uM reduced glutathione
[5] = physchem; settings: solution with 500 uM reduced glutathione
[6] = target: Neuronal acetylcholine receptor subunit alpha-7 (Rattus norvegicus) (UniProt Q05941); test: Activity at rat alpha7 nAChR expressed in Xenopus laevis assessed as inhibition of acetylcholine-induced current at holding potential of -80 mV up to 10 uM by two-electrode voltage clamp technique
[7] = Stability assessed as native globular conformation level in presence of reduced glutathione at 500 uM at 24 hrs; type: physicochemical; settings: solution with 500 uM reduced glutathione; read-out: Stability
[8] = target: Neuronal acetylcholine receptor subunit alpha-7 (Rattus norvegicus) (UniProt Q05941); test: Activity at rat alpha7 nAChR expressed in Xenopus laevis assessed as inhibition of acetylcholine-induced current at holding potential of -80 mV up to 1 uM by two-electrode voltage clamp technique

Sequence of Neuronal acetylcholine receptor subunit alpha-7 (Rattus norvegicus) (Q05941 whole entry): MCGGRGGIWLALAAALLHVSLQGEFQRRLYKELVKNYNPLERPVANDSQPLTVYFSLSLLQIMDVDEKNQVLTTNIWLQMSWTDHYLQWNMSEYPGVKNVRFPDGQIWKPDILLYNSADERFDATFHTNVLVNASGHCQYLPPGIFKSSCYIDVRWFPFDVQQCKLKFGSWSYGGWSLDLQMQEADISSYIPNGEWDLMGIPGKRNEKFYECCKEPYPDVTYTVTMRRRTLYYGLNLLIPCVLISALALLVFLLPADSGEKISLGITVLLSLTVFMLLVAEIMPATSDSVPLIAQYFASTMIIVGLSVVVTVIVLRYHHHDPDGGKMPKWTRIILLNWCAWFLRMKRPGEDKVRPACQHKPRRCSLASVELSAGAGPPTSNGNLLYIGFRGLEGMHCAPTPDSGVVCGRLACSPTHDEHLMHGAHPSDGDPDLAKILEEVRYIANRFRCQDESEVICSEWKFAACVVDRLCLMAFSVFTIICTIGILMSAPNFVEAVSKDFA
Sequence of Neuronal acetylcholine receptor subunit alpha-7 (Q05941 whole entry): as above
Sequence of Acetylcholine-binding protein (P58154 whole entry): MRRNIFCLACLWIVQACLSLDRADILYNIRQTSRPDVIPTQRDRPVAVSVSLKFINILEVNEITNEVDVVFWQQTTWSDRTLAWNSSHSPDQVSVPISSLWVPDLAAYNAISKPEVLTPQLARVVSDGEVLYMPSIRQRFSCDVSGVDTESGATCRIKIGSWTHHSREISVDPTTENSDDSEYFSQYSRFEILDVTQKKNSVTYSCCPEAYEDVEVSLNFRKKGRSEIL

Structure (SMILES) | degraded at 2 h [1] [%] | pKi [2] | pIC50 [3] | half-life [4] [h] | remaining at 8 h, 500 µM [5] [%] | Activity [6] | remaining at 24 h [7] [%] | Activity [8]
CC(C)C[C@@H]1NC(=O)[C@H](C)NC(=O)[C@@H]2CSSC[C@H](NC(=O)CN)C(=O)N[C@@H](CSSC[C@@H](C(=O)O)NC(=O)[C@H](CC(N)=O)NC(=O)[C@H](CC(N)=O)NC1=O)C(=O)N[C@@H](CO)C(=O)N[C@@H](CC(C)C)C(=O)N1CCC[C@H]1C(=O)N1CCC[C@H]1C(=O)N2 (H-GCCSLPPCALNNC-OH; disulfide 2-8, 3-13) | > 80 | 5.35 | 6.68 | < 0.5 | – | – | – | –
CC(C)C[C@@H]1NC(=O)[C@H](CO)NC(=O)[C@@H]2CSSC[C@@H](C(=O)O)NC(=O)[C@H](Cc3ccc(O)cc3)NC(=O)[C@H](CC(=O)O)NC(=O)[C@@H]3CCCN3C(=O)[C@H](CC(N)=O)NC(=O)[C@H](CC(N)=O)NC(=O)[C@H](C)NC(=O)[C@H](C)NC(=O)[C@H](CSSC[C@H](NC(=O)CN)C(=O)N2)NC(=O)[C@@H]2CCCN2C(=O)[C@@H]2CCCN2C1=O (H-GCCSLPPCAANNPDYC-OH; disulfide 2-8, 3-16) | – | 6.91 | 6.60 | – | – | – | – | –
CC(C)C[C@@H]1NC(=O)[C@H](C)NC(=O)[C@@H]2CSSC[C@H](NC(=O)CN)C(=O)N[C@@H](CSSC[C@@H](C(=O)O)NC(=O)[C@H](CC(=O)O)NC(=O)[C@@H]3CCCN3C(=O)[C@H](CC(N)=O)NC(=O)[C@H](CC(N)=O)NC1=O)C(=O)N[C@@H](CO)C(=O)N[C@@H](CC(C)C)C(=O)N1CCC[C@H]1C(=O)N1CCC[C@H]1C(=O)N2 (H-GCCSLPPCALNNPDC-OH; disulfide 2-8, 3-15) | – | 5.51 | 6.94 | 2 | 40 | inactive | – | –
CC(C)C[C@@H]1NC(=O)[C@H](C)NC(=O)[C@@H]2CSSC[C@H](NC(=O)CN)C(=O)N[C@@H](CSSC[C@@H](C(=O)O)NC(=O)[C@@H]3CCCN3C(=O)[C@H](CC(N)=O)NC(=O)[C@H](CC(N)=O)NC1=O)C(=O)N[C@@H](CO)C(=O)N[C@@H](CC(C)C)C(=O)N1CCC[C@H]1C(=O)N1CCC[C@H]1C(=O)N2 (H-GCCSLPPCALNNPC-OH; disulfide 2-8, 3-14) | > 80 | 5.34 | 7.10 | < 0.5 | – | – | – | –
CC(C)C[C@@H]1NC(=O)[C@H](C)NC(=O)[C@@H]2CSSC[C@H](NC(=O)CN)C(=O)N[C@@H](CSSC[C@@H](C(=O)O)NC(=O)[C@H](CC(N)=O)NC1=O)C(=O)N[C@@H](CO)C(=O)N[C@@H](CC(C)C)C(=O)N1CCC[C@H]1C(=O)N[C@@H](CCCNC(=N)N)C(=O)N2 (H-GCCSLPRCALNC-OH; disulfide 2-8, 3-12) | – | – | – | 1 | – | inactive | 40 | –
CC(C)C[C@@H]1NC(=O)[C@H](C)NC(=O)[C@@H]2CSSC[C@H](NC(=O)CN)C(=O)N[C@@H](CSSC[C@@H](C(=O)O)NC(=O)[C@H](CC(N)=O)NC1=O)C(=O)N[C@@H](CO)C(=O)N[C@@H](CC(C)C)C(=O)N1CCC[C@H]1C(=O)N1CCC[C@H]1C(=O)N2 (H-GCCSLPPCALNC-OH; disulfide 2-8, 3-12) | > 80 | 5.10 | < 5.00 | < 0.5 | – | – | – | inactive
